The values that follow come from PubChem BioAssay AID2799 (Sanford-Burnham Center for Chemical Genomics, 2010).

Structures are written as SMILES.

This assay deals with HEK293 NOD2/MDP-induced NF-kB reporter, inhibition. Kind of assay: NOD2 signaling inhibitors, analog potency, SAR follow-up, cell-based, set 3 (AID 2799).

As for `CCCCn1c(SCC(=O)Nc2nnc(CC)s2)nc2c1c(=O)n(C)c(=O)n2C`, the half-inhibitory concentration (IC50) was 7.12 µM.
